According to US10723741B1, “DNA polymerase IIIC inhibitors and use thereof” (Acurx Pharmaceuticals, LLC, priority 2018, dated 2020):
Values after ≈ are worked out from the molar mass of the structure shown. Read-outs that look alike come from different tables or passages of the source.

Experiments:
Type in all cases: cell-based
[1] = test system: Staphylococcus aureus NRS384 (MRSA); assay: Broth microdilution MIC, S. aureus NRS384 (MRSA); set-up: MIC NRS 384 (MRSA): unit not given here; conditions: for MIC: Staphylococcus aureus, read-out: MIC NRS 384 (MRSA)
Procedure, shortened: (§1)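 Broth microdilution in strain-specific test medium with ~5.0×10^5 cfu/ml inoculum, 1% DMSO and two-fold compound dilutions from 64 to 0.0625 μg/ml. Plates were held 20 hours at 37° C in ambient air. S. pneumoniae colonies were grown beforehand on blood agar in 5% CO2.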

[2] = test system: Staphylococcus aureus ATCC 29213 (MSSA); assay: Broth microdilution MIC, S. aureus ATCC 29213 (MSSA); conditions: read-out: MIC S. aureus ATCC 29213 (MSSA)
Procedure, shortened: as §1

[3] = test system: Enterococcus faecalis ATCC 29212; assay: Broth microdilution MIC, E. faecalis ATCC 29212; conditions: read-out: MIC E. faecalis ATCC 29212
Procedure, shortened: as §1

[4] = test system: Enterococcus faecium ATCC 700221 (VRE); assay: Broth microdilution MIC, E. faecium ATCC 700221 (VRE); set-up: MIC E. faecium ATCC 700221 (VRE): unit: ug/mL; conditions: for MIC: Enterococcus faecium, read-out: MIC E. faecium ATCC 700221 (VRE)
Procedure, shortened: as §1

[5] = test system: Streptococcus pneumoniae ATCC 49619; assay: Broth microdilution MIC, S. pneumoniae ATCC 49619; conditions: read-out: MIC S. pneumoniae ATCC 49619
Procedure, shortened: as §1

[6] = test system: Bacillus subtilis ATCC 6633; assay: Broth microdilution MIC, B. subtilis ATCC 6633; conditions: read-out: MIC B. subtilis ATCC 6633
Procedure, shortened: as §1

[7] = test system: Escherichia coli ATCC 25922; assay: Broth microdilution MIC, E. coli ATCC 25922 (MHIIB w & w/o 4 mM EDTA); conditions: for MIC: Escherichia coli, read-out: MIC E. coli ATCC 25922
Procedure, shortened: as §1

[8] = broth microdilution, 37° C., 20 hours
[9] = ATCC29212, broth microdilution, 37° C., 20 hours
[10] = ATCC49619, broth microdilution, 37° C., 20 hours
[11] = ATCC6633, broth microdilution, 37° C., 20 hours
[12] = ATCC25922, without EDTA, broth microdilution, 37° C., 20 hours
[13] = with 4 mM EDTA, broth microdilution, 37° C., 20 hours
[14] = S. aureus NRS 384, broth microdilution, 37° C., 20 hours

Structure (SMILES)	MIC [1, 8] [µg/mL]	MIC [2, 8] [µg/mL]	MIC [3, 9] [µg/mL]	MIC [4, 8] [µg/mL]	MIC [5, 10] [µg/mL]	MIC [6, 11] [µg/mL]	MIC [7, 12] [µg/mL]	MIC E. coli ATCC 25922 + 4 mM EDTA [7, 13] [µg/mL]	MIC [1, 14] [µg/mL]	MIC ([1]; 20 h) [µg/mL]	MIC ([2]; 20 h) [µg/mL]	MIC ([3]; ATCC29212, 20 h) [µg/mL]	MIC ([4]; 20 h) [µg/mL]	MIC ([5]; ATCC49619, 20 h) [µg/mL]	MIC ([6]; ATCC6633, 20 h) [µg/mL]	MIC ([7]; ATCC25922, 20 h) [µg/mL]	MIC E. coli ATCC 25922 + 4 mM EDTA ([7]; ATCC25922, 20 h) [µg/mL]	MIC NRS 384 (MRSA) [1, 14]	MIC E. faecium ATCC 700221 (VRE) [4, 8]
O=C(CO)Cn1ncc2nc(NCc3ccc(Cl)c(Cl)c3)[nH]c(=O)c21 [Compound 290, 5-((3,4-dichlorobenzyl)amino)-1-(3-hydroxy-2-oxopropyl)-1H-pyrazolo[4,3-d]pyrimidin-7(6H)-one]	16 (≈ 41.9 µM)	32 (≈ 83.7 µM)	16 (≈ 41.9 µM)	8 (≈ 20.9 µM)	16 (≈ 41.9 µM)	8 (≈ 20.9 µM)	> 64	>64											
[2H]C([2H])(Nc1nc2cnn(CCOCCO)c2c(=O)[nH]1)c1ccc(Cl)c(Cl)c1 [Compound 291, 5-[[dideuterio-(3,4-dichlorophenyl)methyl]amino]-1-[2-(2-hydroxyethoxy)ethyl]-6H-pyrazolo[4,3-d]pyrimidin-7-one]	16 (≈ 40 µM)	16 (≈ 40 µM)	16 (≈ 40 µM)	4 (≈ 9.99 µM)	8 (≈ 20 µM)	4 (≈ 9.99 µM)	> 64	>64											
Cl.N=C(N)NCCn1ncc2nc(NCc3ccc(Cl)c(Cl)c3)[nH]c(=O)c21 [Compound 292, 1-(2-(5-((3,4-dichlorobenzyl)amino)-7-oxo-6,7-dihydro-1H-pyrazolo[4,3-d]pyrimidin-1-yl)ethyl)guanidine hydrochloride]	16	16	64	64	64	16	> 64	>64											
Cl.N=C(N)NCCOCCn1ncc2nc(NCc3ccc(Cl)c(Cl)c3)[nH]c(=O)c21 [Compound 293, 1-(2-(2-(5-((3,4-Dichlorobenzyl)amino)-7-oxo-6,7-dihydro-1H-pyrazolo[4,3-d]pyrimidin-1-yl)ethoxy)ethyl)guanidine hydrochloride]	16	16	64	> 64	16	8	> 64	32											
CNC(=N)NCCn1ncc2nc(NCc3ccc(Cl)c(Cl)c3)[nH]c(=O)c21.Cl [Compound 294, 1-(2-(5-((3,4-Dichlorobenzyl)amino)-7-oxo-6,7-dihydro-1H-pyrazolo[4,3-d]pyrimidin-1-yl)ethyl)-3-methylguanidine hydrochloride]	32	32	64	64	32	16	> 64	64											
Cl.O=c1[nH]c(NCc2ccc(Cl)c(Cl)c2)nc2cnn(CCNC3=NCCN3)c12 [Compound 295, 5-((3,4-Dichlorobenzyl)amino)-1-(2-((4,5-dihydro-1H-imidazol-2-yl)amino)ethyl)-1H-pyrazolo[4,3-d]pyrimidin-7(6H)-one hydrochloride]	64	> 64	64	64	32	32	> 64	64											
O=c1[nH]c(NCc2ccc(Cl)c(Cl)c2)nc2cnn(CCOCCOP(=O)(O)O)c12 [Compound 296, 2-(2-(5-((3,4-dichlorobenzyl)amino)-7-oxo-6,7-dihydro-1H-pyrazolo[4,3-d]pyrimidin-1-yl)ethoxy)ethyl dihydrogen phosphate]		> 64	> 64	64	8	32	> 64	>64	> 64										
COP(=O)(OC)OCCOCCn1ncc2nc(NCc3ccc(Cl)c(Cl)c3)[nH]c(=O)c21 [Compound 297, 2-(2-(5-((3,4-dichlorobenzyl)amino)-7-oxo-6,7-dihydro-1H-pyrazolo[4,3-d]pyrimidin-1-yl)ethoxy)ethyl dimethyl phosphate]								>64		32	16	16	8	8	8	> 64			
COP(=O)(O)OCCOCCn1ncc2nc(NCc3ccc(Cl)c(Cl)c3)[nH]c(=O)c21 [Compound 298, 2-(2-(5-((3,4-Dichlorobenzyl)amino)-7-oxo-6,7-dihydro-1H-pyrazolo[4,3-d]pyrimidin-1-yl)ethoxy)ethyl methyl hydrogen phosphate]								>64		> 64	> 64	> 64	> 64	> 64	> 64	> 64			
N.N.O=c1[nH]c(NCc2ccc(Cl)c(Cl)c2)nc2cnn(CCOCCOCOP(=O)(O)O)c12 [Compound 299, ammonium (2-(2-(5-((3,4-dichlorobenzyl)amino)-7-oxo-6,7-dihydro-1H-pyrazolo[4,3-d]pyrimidin-1-yl)ethoxy)ethoxy)methyl phosphate]		> 64	> 64	16	16	64	> 64		> 64								>64		
CSCOCCOCCn1ncc2nc(NCc3ccc(Cl)c(Cl)c3)[nH]c(=O)c21 [Compound 300, 5-[(3,4-dichlorophenyl)methylamino]-1-[2-[2-(methylsulfanylmethoxy)ethoxy]ethyl]-6H-pyrazolo[4,3-d]pyrimidin-7-one]		4 (≈ 8.73 µM)	8 (≈ 17.5 µM)		4 (≈ 8.73 µM)	1 (≈ 2.18 µM)	> 64	>64										4/4	2/4
O=c1[nH]c(NCc2ccc(F)c(F)c2)nc2c(F)nn(CCOCCO)c12 [Compound 301, 5-((3,4-difluorobenzyl)amino)-3-fluoro-1-(2-(2-hydroxyethoxy)ethyl)-1H-pyrazolo[4,3-d]pyrimidin-7(6H)-one]		8 (≈ 20.9 µM)	8 (≈ 20.9 µM)	4 (≈ 10.4 µM)	4 (≈ 10.4 µM)	8 (≈ 20.9 µM)	> 64	>64	4 (≈ 10.4 µM)										
O=c1[nH]c(NCc2ccc(Cl)c(Cl)c2)nc2c(F)nn(CCOCCO)c12 [Compound 302, 5-[(3,4-Dichlorophenyl)methylamino]-3-fluoro-1-[2-(2-hydroxyethoxy)ethyl]-6H-pyrazolo[4,3-d]pyrimidin-7-one]		2 (≈ 4.8 µM)	2 (≈ 4.8 µM)	1 (≈ 2.4 µM)	2 (≈ 4.8 µM)	0.5 (≈ 1.2 µM)	> 64	>64	2 (≈ 4.8 µM)										
O=c1[nH]c(NCc2ccc(Cl)c(Cl)c2)nc2c(Cl)nn(CCOCCO)c12 [Compound 303, 3-Chloro-5-[(3,4-dichlorophenyl)methylamino]-1-[2-(2-hydroxyethoxy)ethyl]-6H-pyrazolo[4,3-d]pyrimidin-7-one]		2 (≈ 4.62 µM)	2 (≈ 4.62 µM)	1 (≈ 2.31 µM)	2 (≈ 4.62 µM)	0.5 (≈ 1.16 µM)	> 64	>64	2 (≈ 4.62 µM)										
